# Assay results reported in the supplement of paper PMC10307832.
# Compound: COc1cccc2c1C(=O)c1c(O)c3c(c(O)c1C2=O)C[C@@](O)(C(=O)CO)C[C@@H]3O[C@H]1C[C@H](N)[C@H](O)[C@H](C)O1 [Doxorubicin] + CCNC(=O)c1noc(-c2cc(C(C)C)c(O)cc2O)c1-c1ccc(CN2CCOCC2)cc1 [Luminespib] (partner 0.01 µM)
# Assay: relative viability (nuclei count vs DMSO), 5 days (fraction); higher = more cells survive
# Conditions: first compound 0.001 µM
# Summary of the method: (§1)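 One day after seeding in 1536-well plates, lung cancer cell lines were dosed by pin tool. Dosing was either single-drug or a fixed anchor-drug dose plus five library-drug doses (not always all listed) in √10 steps. After 5 days, nuclei were stained in one fix-and-stain step and counted on 4× images, and relative viability is the nuclei count of treated wells over that of vehicle wells, given as the median of duplicate plates.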
row,Cell Line,relative viability
1,NCI-H2342,0.816
2,NCI-H1623,0.394
3,RERF-LC-KJ,1.32
4,NCI-H1651,0.749
5,NCI-H1734,0.869
6,NCI-H2009,1.07
7,NCI-H596,0.933
8,SK-LU-1,0.204
9,SW 1573,0.22
10,LCLC-97TM1,0.718
11,NCI-H661,0.915
12,NCI-H2228,0.208
13,EMC-BAC-2,1.25
14,HCC-44,0.879
15,NCI-H727,0.286
16,LK-2,0.171
17,NCI-H2126,0.643
18,H3255,0.982
19,COR-L23,0.678
20,COR-L 105,0.678
21,LC-2-ad,0.889
22,ChaGo-K-1,0.614
23,SW 900,0.176
24,NCI-H1563,0.486
25,NCI-H1650,0.201
26,NCI-H2170,0.484
27,ABC-1,0.484

# Same assay, conditions: first compound 0.003162 µM
row,Cell Line,relative viability
1,NCI-H2342,0.739
2,NCI-H1623,0.478
3,RERF-LC-KJ,1.21
4,NCI-H1651,0.954
5,NCI-H1734,0.196
6,NCI-H2009,0.979
7,NCI-H596,1.21
8,SK-LU-1,0.215
9,SW 1573,0.206
10,LCLC-97TM1,0.818
11,NCI-H661,0.909
12,NCI-H2228,0.139
13,EMC-BAC-2,1.18
14,NCI-H2087,0.19
15,HCC-44,0.838
16,NCI-H727,0.348
17,LK-2,0.215
18,NCI-H2126,0.88
19,NCI-H1793,0.228
20,H3255,0.84
21,COR-L23,0.637
22,COR-L 105,0.754
23,LC-2-ad,0.696
24,ChaGo-K-1,0.592
25,NCI-H522,1.21
26,SW 900,0.152
27,NCI-H1563,0.549
28,NCI-H1650,0.182
29,NCI-H2170,0.89
30,ABC-1,0.418

# Same assay, conditions: first compound 0.01 µM
row,Cell Line,relative viability
1,NCI-H2342,0.585
2,NCI-H1623,0.508
3,RERF-LC-KJ,0.838
4,NCI-H1651,0.66
5,NCI-H1734,0.175
6,NCI-H2009,1.01
7,NCI-H596,0.838
8,SK-LU-1,0.249
9,SW 1573,0.178
10,LCLC-97TM1,0.677
11,NCI-H661,0.858
12,NCI-H2228,0.2
13,EMC-BAC-2,1.04
14,NCI-H2087,0.14
15,HCC-44,0.658
16,NCI-H727,0.225
17,LK-2,0.235
18,NCI-H2126,0.817
19,NCI-H1793,0.289
20,H3255,0.841
21,COR-L23,0.567
22,COR-L 105,0.691
23,LC-2-ad,0.642
24,ChaGo-K-1,0.651
25,NCI-H522,1.12
26,SW 900,0.162
27,NCI-H1563,0.536
28,NCI-H1650,0.203
29,NCI-H2170,0.772
30,ABC-1,0.347

# Same assay, conditions: first compound 0.03162 µM
row,Cell Line,relative viability
1,NCI-H2342,0.507
2,NCI-H1623,0.374
3,RERF-LC-KJ,0.323
4,NCI-H1651,0.305
5,NCI-H1734,0.18
6,NCI-H2009,0.925
7,NCI-H596,0.821
8,SK-LU-1,0.203
9,SW 1573,0.0908
10,LCLC-97TM1,0.772
11,NCI-H661,0.574
12,NCI-H2228,0.151
13,EMC-BAC-2,0.551
14,NCI-H2087,0.133
15,HCC-44,0.526
16,NCI-H727,0.336
17,LK-2,0.162
18,NCI-H2126,0.394
19,NCI-H1793,0.159
20,H3255,0.75
21,COR-L23,0.163
22,COR-L 105,0.595
23,LC-2-ad,0.421
24,ChaGo-K-1,0.52
25,NCI-H522,0.885
26,SW 900,0.167
27,NCI-H1563,0.528
28,NCI-H1650,0.223
29,NCI-H2170,0.5
30,ABC-1,0.339

# Same assay, conditions: first compound 0.1 µM
row,Cell Line,relative viability
1,NCI-H2342,0.787
2,NCI-H1623,0.487
3,RERF-LC-KJ,0.308
4,NCI-H1651,0.216
5,NCI-H1734,0.213
6,NCI-H2009,0.582
7,NCI-H596,1.02
8,SK-LU-1,0.165
9,SW 1573,0.0847
10,LCLC-97TM1,0.834
11,NCI-H661,0.378
12,NCI-H2228,0.135
13,EMC-BAC-2,0.425
14,NCI-H2087,0.144
15,HCC-44,0.273
16,NCI-H727,0.308
17,LK-2,0.16
18,NCI-H2126,0.286
19,NCI-H1793,0.263
20,H3255,0.829
21,COR-L23,0.147
22,COR-L 105,0.363
23,LC-2-ad,0.295
24,ChaGo-K-1,0.54
25,NCI-H522,1.15
26,SW 900,0.175
27,NCI-H1563,0.491
28,NCI-H1650,0.182
29,NCI-H2170,0.758
30,ABC-1,0.213

# Compound: COC1=C(C=C(C=C1)C2=CC3=NC=CN3C(=N2)NC4=C(C=CC=N4)C(=O)N)OC [BAY61-3606] + Cc1nc(NC(=O)N2CCC[C@H]2C(N)=O)sc1-c1ccnc(C(C)(C)C(F)(F)F)c1 [Alpelisib] (partner 2 µM)
# Assay: as above
# Conditions: first compound 0.02 µM
# Summary of the method: as §1
row,Cell Line,relative viability
1,RERF-LC-KJ,0.957
2,NCI-H1651,0.991
3,EBC-1,0.907
4,NCI-H1734,0.706
5,NCI-H2009,1.11
6,NCI-H596,0.428
7,SK-LU-1,1.37
8,SW 1573,0.838
9,LCLC-97TM1,0.232
10,NCI-H661,0.754
11,NCI-H2228,0.702
12,EMC-BAC-2,0.817
13,NCI-H2087,1.15
14,Calu-6,1.04
15,HCC-44,0.866
16,NCI-H1703,0.377

row,Cell Line,relative viability
1,NCI-H727,0.611
2,LK-2,1.11
3,NCI-H2126,0.784
4,NCI-H1793,0.817
5,H3255,0.708
6,COR-L23,0.868
7,COR-L 105,0.942
8,LC-2-ad,0.851
9,IA-LM,0.805
10,HCC-78,0.405
11,A549,0.81
12,NCI-H1299,1.05
13,NCI-H1563,1.02
14,NCI-H2170,0.775
15,ABC-1,1.06
16,HCC-366,0.449

# Same assay, conditions: first compound 0.06325 µM
row,Cell Line,relative viability
1,RERF-LC-KJ,0.751
2,NCI-H1651,0.964
3,EBC-1,0.902
4,NCI-H1734,0.615
5,NCI-H2009,1.14
6,NCI-H596,0.482
7,SK-LU-1,0.951
8,SW 1573,0.679
9,NCI-H661,0.571
10,NCI-H2228,0.654
11,EMC-BAC-2,0.837
12,NCI-H2087,1.17
13,Calu-6,1.13
14,HCC-44,0.909
15,NCI-H1703,0.385
16,NCI-H727,0.615
17,LK-2,0.874
18,NCI-H2126,0.769
19,NCI-H1793,0.782
20,H3255,0.635
21,COR-L23,0.764
22,COR-L 105,0.988
23,LC-2-ad,0.96
24,HCC-78,0.366
25,A549,0.658
26,NCI-H1299,1.08
27,NCI-H1563,0.905
28,NCI-H2170,0.869
29,ABC-1,1.14
30,HCC-366,0.343

# Same assay, conditions: first compound 0.2 µM
row,Cell Line,relative viability
1,RERF-LC-KJ,0.765
2,NCI-H1651,0.938
3,EBC-1,0.869
4,NCI-H1734,0.653
5,NCI-H2009,1.09
6,NCI-H596,0.108
7,SK-LU-1,1.04
8,SW 1573,0.88
9,LCLC-97TM1,0.244
10,NCI-H661,0.694
11,NCI-H2228,0.782
12,EMC-BAC-2,0.75
13,NCI-H2087,1.02
14,Calu-6,0.946
15,HCC-44,0.806
16,NCI-H1703,0.317

row,Cell Line,relative viability
1,NCI-H727,0.609
2,LK-2,1.17
3,NCI-H2126,0.705
4,NCI-H1793,0.64
5,H3255,0.673
6,COR-L23,0.753
7,COR-L 105,0.76
8,LC-2-ad,0.875
9,IA-LM,0.98
10,HCC-78,0.453
11,A549,0.846
12,NCI-H1299,1.07
13,NCI-H1563,0.894
14,NCI-H2170,0.801
15,ABC-1,1.15
16,HCC-366,0.369

# Same assay, conditions: first compound 0.6325 µM
row,Cell Line,relative viability
1,RERF-LC-KJ,0.853
2,NCI-H1651,0.967
3,EBC-1,0.928
4,NCI-H1734,0.654
5,NCI-H2009,1.21
6,NCI-H596,0.479
7,SK-LU-1,0.844
8,SW 1573,0.822
9,LCLC-97TM1,0.231
10,NCI-H661,0.57
11,NCI-H2228,0.736
12,EMC-BAC-2,0.85
13,NCI-H2087,1.16
14,Calu-6,0.956
15,HCC-44,0.997
16,NCI-H1703,0.305

row,Cell Line,relative viability
1,NCI-H727,0.721
2,LK-2,1.15
3,NCI-H2126,0.739
4,NCI-H1793,0.882
5,H3255,0.874
6,COR-L23,0.78
7,COR-L 105,1.02
8,LC-2-ad,0.82
9,IA-LM,0.748
10,HCC-78,0.362
11,A549,0.718
12,NCI-H1299,1
13,NCI-H1563,0.894
14,NCI-H2170,0.857
15,ABC-1,0.968
16,HCC-366,0.388

# Same assay, conditions: first compound 2 µM
row,Cell Line,relative viability
1,RERF-LC-KJ,0.629
2,NCI-H1651,0.738
3,EBC-1,0.686
4,NCI-H1734,0.413
5,NCI-H2009,1.08
6,NCI-H596,0.407
7,SK-LU-1,0.421
8,SW 1573,0.451
9,LCLC-97TM1,0.238
10,NCI-H661,0.689
11,NCI-H2228,0.561
12,EMC-BAC-2,0.802
13,NCI-H2087,0.949
14,Calu-6,0.703
15,HCC-44,0.833
16,NCI-H1703,0.218
17,NCI-H727,0.488
18,LK-2,0.996
19,NCI-H2126,0.671
20,NCI-H1793,0.839
21,H3255,0.735
22,COR-L23,0.486
23,COR-L 105,0.788
24,LC-2-ad,0.671
25,IA-LM,0.661
26,HCC-78,0.358
27,A549,0.573
28,NCI-H1299,1.03
